Assay results published in US11713470B2, “Targeted gene therapies for pain and other neuro-related disorders” (University of Pittsburgh—Of the Commonwealth System of …, priority 2017, dated 2023).
“Also recorded” adds a separate entry of the source.

Legend:
PSAM-GlyR = conditions: Magnus et al. 2011; cited from earlier work
[1] = target: T1, PSAM-GlyR in calretinin neurons in the dorsal horn lamina II (Homo sapiens, UniProt P23415+P36544, L141F); format: in vivo, mouse; conditions: Calr^Cre mice with PSAM-GlyR, 30 mg/kg i.p.
T1 construct: plasmid from Addgene (Sternson); host or cells: mouse dorsal horn neurons transduced with Cre-dependent AAV2/8 (Tlx3^Cre, CCK^Cre or Calr^Cre mice)
Description: (§1) Methods. Animals: All animals were kept on a standard 12:12 light/dark cycle in micro-isolator caging racks (Allentown Caging) with food and water provided ad libitum. Mouse strains obtained from Jackson Laboratories include C57Bl/6J (JAX #000664), Calr^Cre (JAX #010774) and CCK^Cre (JAX #012706). Adeno-associated viruses (AAV2/8) used in these experiments: hSyn-Flex-rev-PSAM^L141F-GlyR-IRES-eGFP (7^12 vg/ml) and hSyn-Flex-rev-PSAM^L141F,Y115F-GlyR-IRES-eGFP (1.7^13 vg/ml) were custom made by UNC Vector core based on plasmid material developed by Scott Sternson and provided by Addgene. The hSyn-Flex-rev-PSAM^L141F-GlyR-IRES-eGFP (7^12 vg/ml) was used in all experiments except FIG. 8 (e,f). For these experiments, hSyn-Flex-rev-PSAM^L141F,Y115F-GlyR-IRES-eGFP (1.7^13 vg/ml) was used. Methods including: intra-spinal virus injections, paw withdrawal threshold to von Frey filaments, to cotton swab, Hargreaves, pinprick and acute pain behaviors licking, guarding, flicking are all as previously described (Peirs, C. et al. Dorsal Horn Circuits for Persistent Mechanical Pain. Neuron 87, 797-812 (2015); Seal, R. P. et al. Injury-induced mechanical hypersensitivity requires C-low threshold mechanoreceptors. Nature 462, 651-655, (2009)); For paw withdrawal threshold to pressure: mice were lightly restrained by hand such that their rear legs were allowed to freely hang. Using a Pressure Application Measurement device (Ugo Basile) the hind paw was grasped between the experimenter's forefinger and thumb (with pressure transducer on the thumb), and force was slowly applied to the paw until the mouse struggled or flicked its limb (paw withdrawal threshold, PWT). The final force in grams was recorded. Each mouse was tested on the left and right paw for three trials with a ten-minute inter-trial interval between applications, and the three results averaged for each paw. Injury Models including incision, complete Freund's adjuvant, spared nerve injury tibial and sural models, carrageenan, methylglyoxal and multi-dose streptozotocin are as previously described (Peirs, C. et al. Dorsal Horn Circuits for Persistent Mechanical Pain. Neuron 87, 797-812 (2015); Seal, R. P. et al. Injury-induced mechanical hypersensitivity requires C-low threshold mechanoreceptors. Nature 462, 651-655, (2009); Decosterd, I. and Woolf, C. J. Spared nerve injury: an animal model of persistent peripheral neuropathic pain. Pain 87, 149-158 (2000); Bierhaus, A. et al. Methylglyoxal modification of Nav1.8 facilitates nociceptive neuron firing and causes hyperalgesia in diabetic neuropathy. Nat Med 18, 926-933 (2012); Cavanaugh, D. J. et al. Distinct subsets of unmyelinated primary sensory fibers mediate behavioral responses to noxious thermal and mechanical stimuli. Proc Natl Acad Sci USA 106, 9075-9080, (2009)). Chemogenetic Activation of PSAM-GlyR Receptor: Behavior thresholds were performed as described above in AAV8-hSyn-DIO-PSAM-GlyR-IRES-GFP injected mice. PSEM^89S at 30 mg/kg was injected intraperitoneally 15 minutes prior to testing. Immunohistochemistry was performed as previously described (Peirs, C. et al. Dorsal Horn Circuits for Persistent Mechanical Pain. Neuron 87, 797-812 (2015); Seal, R. P. et al. Injury-induced mechanical hypersensitivity requires C-low threshold mechanoreceptors. Nature 462, 651-655 (2009)). α-bungarotoxin conjugated to Alexa-647 (1:1000; ThermoFisher B35450), α-bungarotoxin conjugated to Alexa-488 (1:1000; ThermoFisher B13422). Imaging: Spinal cord sections were imaged with a confocal laser-scanning microscope (Nikon A1R) and Nikon Elements software using 405-, 488-, 561- and 640 nm excitation laser light. In order to suppress emission crosstalk, the microscope was configured to perform all scanning in sequential mode. Z-series were scanned at 20× magnification with an oil immersion lens and a z-step of 5.0 μm. Quantification and Statistical Analysis: all data are reported as mean±SEM. For acute behaviors, a two-tailed Student's t-test was used. […]

[2] = target: T2, PSAM-GlyR in CCK^+ dorsal horn neurons (Homo sapiens, UniProt P23415+P36544, L141F/Y115F); assay: Persistent pain models in mice expressing PSAM-GlyR in CCK^+ dorsal horn neurons; format: in vivo, mouse; conditions: PSAM^L141F,Y115F-GlyR virus, CCK^+ neurons
T2 construct: plasmid from Addgene (Sternson); host or cells: mouse dorsal horn neurons transduced with Cre-dependent AAV2/8 (Tlx3^Cre, CCK^Cre or Calr^Cre mice)
Description: as §1

[3] = target: T3, PSAM-GlyR in CCK^+ dorsal horn neurons (Homo sapiens, UniProt P23415+P36544, L141F); assay: as above; format: in vivo, mouse; conditions: 30 mg/kg i.p., PSAM-GlyR in CCK^+ neurons
T3 construct: plasmid from Addgene (Sternson); host or cells: mouse dorsal horn neurons transduced with Cre-dependent AAV2/8 (Tlx3^Cre, CCK^Cre or Calr^Cre mice)
Description: as §1

T1 sequence (P36544+P23415 fused P36544:L141F): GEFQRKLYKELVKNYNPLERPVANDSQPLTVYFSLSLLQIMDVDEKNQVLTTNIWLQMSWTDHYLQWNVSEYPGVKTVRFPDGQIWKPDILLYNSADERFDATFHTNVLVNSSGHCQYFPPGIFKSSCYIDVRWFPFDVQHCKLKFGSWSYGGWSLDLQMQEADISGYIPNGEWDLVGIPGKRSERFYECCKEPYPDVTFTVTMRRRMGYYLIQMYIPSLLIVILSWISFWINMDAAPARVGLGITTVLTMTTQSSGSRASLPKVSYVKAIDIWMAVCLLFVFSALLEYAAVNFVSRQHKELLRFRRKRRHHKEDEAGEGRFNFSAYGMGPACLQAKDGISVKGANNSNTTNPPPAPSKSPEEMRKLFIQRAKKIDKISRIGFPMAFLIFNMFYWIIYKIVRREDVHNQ
T3 sequence (P36544+P23415 fused P36544:L141F): as above
T2 sequence (P36544+P23415 fused P36544:Y115F/P36544:L141F): as the sequence (P36544+P23415 fused P36544:L141F) above, with Y93F counted along it

SMILES: COc1ccc(OC)c(C(=O)NC2CN3CCC2CC3)c1 (stereo not drawn) [PSEM^89S]
- binding to the mutated receptor binding domain (PSAM-GlyR): high affinity
- baseline ipsilateral von Frey threshold ([1]; p=0.3988): no effect
- baseline Hargreaves latencies ([1]; p=0.6125): unchanged
- baseline pinprick ([1]; p=0.7689): no effect
- baseline response to cotton swab ([1]; p=0.7963): no effect
- baseline pressure with calibrated calipers ([1]; p=0.8350): no effect
- baseline sticky tape ([1]; p=0.9346): no effect
- heat hypersensitivity induced by multi-dose STZ ([2]; p=0.010): reversed
- heat hypersensitivity induced by MG (methylglyoxal) ([2]; p=0.0272): reversed
- dynamic allodynia, carrageenan pain model ([3]; p=0.0001): significantly reversed
- dynamic allodynia, sural-SNI model ([3]; p=0.0001): significantly reversed
- heat hypersensitivity, carrageenan pain model ([3]; p=0.0002): significantly reversed
- punctate allodynia, sural-SNI model ([3]; p=0.0003): significantly reversed
- dynamic allodynia, CFA model ([3]; p=0.0016): markedly reversed; also recorded: significantly reversed
- punctate allodynia, carrageenan pain model ([3]; p=0.0017): significantly reversed
- punctate allodynia, CFA model ([3]; p=0.0034): markedly reversed; also recorded: significantly reversed
- punctate allodynia, tibial-SNI model ([3]; p=0.0054): markedly reversed
- heat hypersensitivity, CFA model ([3]; p=0.0368): markedly reversed; also recorded: significantly reversed
